Results taken from PubChem BioAssay AID256 (DTP/NCI, 2004).
Values joined by “and” are separate entries in the source; they are usually repeats but may differ in a detail not shown here. Identical values can stand only once. Inconclusive results and toxic doses are left out.

System: CD2F1 mice, L1210 leukemia ip, survival T/C
Assay: NCI In Vivo Anticancer Drug Screen. Data for tumor model L1210 Leukemia (intraperitoneal) in CD2F1 (CDF1) mice
Conditions: higher = longer survival
Summary of the method: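 Antitumor effect is scored in animals hosting a serially transplanted tumor. Values compare compound-dosed animals against vehicle-only controls as a simple quotient.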

For `O=C1c2ccccc2C(=O)c2c(NCCNCCO)ccc(NCCNCCO)c21`, the T/C (endpoint: mean survival time, dose: 1.0 mg/kg/injection, schedule: Q01DX005 (iv), vehicle: clinical formulation) was 104 % of control, the T/C (endpoint: mean survival time, dose: 2.0 mg/kg/injection, schedule: Q01DX005 (iv), vehicle: saline) was 98 % of control and the T/C (endpoint: mean survival time, dose: 2.0 mg/kg/injection, schedule: Q01DX009 (ip), vehicle: saline) was 153 % of control. The T/C (endpoint: mean survival time, dose: 2.5 mg/kg/injection, schedule: Q01DX009 (ip), vehicle: saline) was 190 % of control, the T/C (endpoint: mean survival time, dose: 2.62 mg/kg/injection, schedule: Q01DX009 (ip), vehicle: saline) was 156 % of control and the T/C (endpoint: mean survival time, dose: 4.0 mg/kg/injection, schedule: Q01DX005 (iv), vehicle: clinical formulation) was 123 % of control. For the same compound, the T/C (endpoint: mean survival time, dose: 4.0 mg/kg/injection, schedule: Q01DX005 (oral), vehicle: acid diluted with saline) was 102 % of control, the T/C (endpoint: mean survival time, dose: 4.0 mg/kg/injection, schedule: Q01DX009 (ip), vehicle: clinical formulation) was 157 % of control and the T/C (endpoint: mean survival time, dose: 4.0 mg/kg/injection, schedule: Q01DX009 (ip), vehicle: saline) was 271 % of control. For the same compound, the T/C (endpoint: mean survival time, dose: 4.0 mg/kg/injection, schedule: Q04DX003 (ip), vehicle: water) was 284 % of control, the T/C (endpoint: mean survival time, dose: 5.0 mg/kg/injection, schedule: Q01DX009 (ip), vehicle: saline) was 156 % of control and 186 % of control and the T/C (endpoint: mean survival time, dose: 5.25 mg/kg/injection, schedule: Q01DX009 (ip), vehicle: saline) was 159 % of control. The T/C (endpoint: mean survival time, dose: 8.0 mg/kg/injection, schedule: Q01DX005 (iv), vehicle: clinical formulation) was 120 % of control, the T/C (endpoint: mean survival time, dose: 8.0 mg/kg/injection, schedule: Q01DX005 (iv), vehicle: saline) was 119 % of control and the T/C (endpoint: mean survival time, dose: 8.0 mg/kg/injection, schedule: Q01DX005 (oral), vehicle: acid diluted with saline) was 98 % of control. The T/C (endpoint: mean survival time, dose: 8.0 mg/kg/injection, schedule: Q01DX005 (oral), vehicle: saline) was 101 % of control, the T/C (endpoint: mean survival time, dose: 8.0 mg/kg/injection, schedule: Q01DX009 (ip), vehicle: clinical formulation) was 346 % of control and the T/C (endpoint: mean survival time, dose: 8.0 mg/kg/injection, schedule: Q01DX009 (ip), vehicle: saline) was 281 % of control. The T/C (endpoint: mean survival time, dose: 8.0 mg/kg/injection, schedule: Q01DX009 (ip), vehicle: water) was 163 % of control and 166 % of control, the T/C (endpoint: mean survival time, dose: 8.0 mg/kg/injection, schedule: Q04DX003 (ip), vehicle: water) was 261 % of control and the T/C (endpoint: mean survival time, dose: 10.0 mg/kg/injection, schedule: Q01DX009 (ip), vehicle: saline) was 218 % of control and 219 % of control. For the same compound, the T/C (endpoint: mean survival time, dose: 10.5 mg/kg/injection, schedule: Q01DX009 (ip), vehicle: saline) was 228 % of control, the T/C (endpoint: mean survival time, dose: 11.7 mg/kg/injection, schedule: Q01DX001 (iv), vehicle: saline) was 98 % of control and the T/C (endpoint: mean survival time, dose: 16.0 mg/kg/injection, schedule: Q01DX005 (ip), vehicle: saline) was 170 % of control. For the same compound, the T/C (endpoint: mean survival time, dose: 16.0 mg/kg/injection, schedule: Q01DX005 (iv), vehicle: clinical formulation) was 164 % of control, the T/C (endpoint: mean survival time, dose: 16.0 mg/kg/injection, schedule: Q01DX005 (oral), vehicle: saline) was 101 % of control and the T/C (endpoint: mean survival time, dose: 16.0 mg/kg/injection, schedule: Q01DX009 (ip), vehicle: clinical formulation) was 461 % of control. The T/C (endpoint: mean survival time, dose: 16.0 mg/kg/injection, schedule: Q01DX009 (ip), vehicle: saline) was 529 % of control, the T/C (endpoint: mean survival time, dose: 16.0 mg/kg/injection, schedule: Q01DX009 (ip), vehicle: water) was 153 % of control and 183 % of control and the T/C (endpoint: mean survival time, dose: 19.4 mg/kg/injection, schedule: Q01DX001 (iv), vehicle: saline) was 102 % of control. For the same compound, the T/C (endpoint: mean survival time, dose: 20.0 mg/kg/injection, schedule: Q01DX009 (ip), vehicle: saline) was 158 % of control and 219 % of control, the T/C (endpoint: mean survival time, dose: 32.0 mg/kg/injection, schedule: Q01DX005 (ip), vehicle: saline) was 263 % of control and the T/C (endpoint: mean survival time, dose: 32.0 mg/kg/injection, schedule: Q01DX005 (iv), vehicle: saline) was 150 % of control. The T/C (endpoint: mean survival time, dose: 32.0 mg/kg/injection, schedule: Q01DX005 (oral), vehicle: acid diluted with saline) was 98 % of control, the T/C (endpoint: mean survival time, dose: 32.0 mg/kg/injection, schedule: Q01DX005 (oral), vehicle: saline) was 103 % of control and the T/C (endpoint: mean survival time, dose: 32.0 mg/kg/injection, schedule: Q01DX009 (ip), vehicle: clinical formulation) was 96 % of control. The T/C (endpoint: mean survival time, dose: 32.0 mg/kg/injection, schedule: Q01DX009 (ip), vehicle: water) was 92 % of control, the T/C (endpoint: mean survival time, dose: 32.0 mg/kg/injection, schedule: Q04DX003 (ip), vehicle: saline) was 160 % of control and the T/C (endpoint: mean survival time, dose: 32.4 mg/kg/injection, schedule: Q01DX001 (ip), vehicle: saline) was 158 % of control and 160 % of control. For the same compound, the T/C (endpoint: mean survival time, dose: 32.4 mg/kg/injection, schedule: Q01DX001 (iv), vehicle: saline) was 117 % of control, the T/C (endpoint: mean survival time, dose: 40.0 mg/kg/injection, schedule: Q01DX009 (ip), vehicle: saline) was 91 % of control and 96 % of control and the T/C (endpoint: mean survival time, dose: 42.0 mg/kg/injection, schedule: Q01DX009 (ip), vehicle: saline) was 90 % of control. For the same compound, the T/C (endpoint: mean survival time, dose: 54.0 mg/kg/injection, schedule: Q01DX001 (ip), vehicle: saline) was 150 % of control and 160 % of control, the T/C (endpoint: mean survival time, dose: 64.0 mg/kg/injection, schedule: Q01DX005 (ip), vehicle: saline) was 89 % of control and the T/C (endpoint: mean survival time, dose: 64.0 mg/kg/injection, schedule: Q01DX005 (oral), vehicle: acid diluted with saline) was 92 % of control. For the same compound, the T/C (endpoint: mean survival time, dose: 64.0 mg/kg/injection, schedule: Q01DX009 (ip), vehicle: water) was 90 % of control, the T/C (endpoint: mean survival time, dose: 64.0 mg/kg/injection, schedule: Q04DX003 (ip), vehicle: saline) was 289 % of control and the T/C (endpoint: mean survival time, dose: 90.0 mg/kg/injection, schedule: Q01DX001 (ip), vehicle: saline) was 182 % of control. For the same compound, the T/C (endpoint: mean survival time, dose: 128.0 mg/kg/injection, schedule: Q01DX005 (oral), vehicle: acid diluted with saline) was 100 % of control, the T/C (endpoint: mean survival time, dose: 128.0 mg/kg/injection, schedule: Q04DX003 (ip), vehicle: saline) was 247 % of control and the T/C (endpoint: mean survival time, dose: 150.0 mg/kg/injection, schedule: Q01DX001 (ip), vehicle: saline) was 221 % of control and 98 % of control. For the same compound, the T/C (endpoint: median survival time, dose: 0.25 mg/kg/injection, schedule: Q01DX005 (iv), vehicle: clinical formulation) was 97 % of control, the T/C (endpoint: median survival time, dose: 0.25 mg/kg/injection, schedule: Q01DX005 (iv), vehicle: water) was 102 % of control and the T/C (endpoint: median survival time, dose: 0.25 mg/kg/injection, schedule: Q01DX009 (ip), vehicle: water) was 118 % of control. The T/C (endpoint: median survival time, dose: 0.5 mg/kg/injection, schedule: Q01DX005 (iv), vehicle: clinical formulation) was 97 % of control, the T/C (endpoint: median survival time, dose: 0.5 mg/kg/injection, schedule: Q01DX005 (iv), vehicle: water) was 98 % of control and the T/C (endpoint: median survival time, dose: 0.5 mg/kg/injection, schedule: Q01DX009 (ip), vehicle: clinical formulation) was 121 % of control. For the same compound, the T/C (endpoint: median survival time, dose: 1.0 mg/kg/injection, schedule: Q01DX005 (iv), vehicle: clinical formulation) was 102 % of control, the T/C (endpoint: median survival time, dose: 1.0 mg/kg/injection, schedule: Q01DX005 (iv), vehicle: water) was 97 % of control and the T/C (endpoint: median survival time, dose: 2.0 mg/kg/injection, schedule: Q01DX005 (iv), vehicle: clinical formulation) was 97 % of control. For the same compound, the T/C (endpoint: median survival time, dose: 2.0 mg/kg/injection, schedule: Q01DX005 (iv), vehicle: water) was 102 % of control, the T/C (endpoint: median survival time, dose: 2.0 mg/kg/injection, schedule: Q01DX009 (ip), vehicle: Klucel (hydroxypropylcellulose) (HPC)) was 151 % of control and the T/C (endpoint: median survival time, dose: 4.0 mg/kg/injection, schedule: Q01DX005 (iv), vehicle: clinical formulation) was 115 % of control. The T/C (endpoint: median survival time, dose: 4.0 mg/kg/injection, schedule: Q01DX009 (ip), vehicle: Klucel (hydroxypropylcellulose) (HPC)) was 197 % of control, the T/C (endpoint: median survival time, dose: 4.0 mg/kg/injection, schedule: Q01DX009 (ip), vehicle: clinical formulation) was 160 % of control and the T/C (endpoint: median survival time, dose: 4.0 mg/kg/injection, schedule: Q01DX009 (ip), vehicle: water) was 156 % of control. For the same compound, the T/C (endpoint: median survival time, dose: 4.0 mg/kg/injection, schedule: Q01DX009 (sc), vehicle: Klucel (hydroxypropylcellulose) (HPC)) was 120 % of control, the T/C (endpoint: median survival time, dose: 4.0 mg/kg/injection, schedule: Q01DX009 (sc), vehicle: water) was 112 % of control and the T/C (endpoint: median survival time, dose: 8.0 mg/kg/injection, schedule: Q01DX009 (ip), vehicle: Klucel (hydroxypropylcellulose) (HPC)) was 156 % of control and 182 % of control. The T/C (endpoint: median survival time, dose: 8.0 mg/kg/injection, schedule: Q01DX009 (ip), vehicle: clinical formulation) was 196 % of control, the T/C (endpoint: median survival time, dose: 8.0 mg/kg/injection, schedule: Q01DX009 (ip), vehicle: water) was 177 % of control and the T/C (endpoint: median survival time, dose: 16.0 mg/kg/injection, schedule: Q01DX005 (iv), vehicle: water) was 155 % of control. The T/C (endpoint: median survival time, dose: 16.0 mg/kg/injection, schedule: Q01DX005 (oral), vehicle: Klucel (hydroxypropylcellulose) (HPC)) was 104 % of control, the T/C (endpoint: median survival time, dose: 16.0 mg/kg/injection, schedule: Q01DX009 (ip), vehicle: Klucel (hydroxypropylcellulose) (HPC)) was 170 % of control and 188 % of control and the T/C (endpoint: median survival time, dose: 16.0 mg/kg/injection, schedule: Q01DX009 (ip), vehicle: clinical formulation) was 238 % of control. The T/C (endpoint: median survival time, dose: 16.0 mg/kg/injection, schedule: Q01DX009 (ip), vehicle: water) was 262 % of control, the T/C (endpoint: median survival time, dose: 16.0 mg/kg/injection, schedule: Q01DX009 (sc), vehicle: Klucel (hydroxypropylcellulose) (HPC)) was 174 % of control and the T/C (endpoint: median survival time, dose: 16.0 mg/kg/injection, schedule: Q01DX009 (sc), vehicle: water) was 164 % of control. For the same compound, the T/C (endpoint: median survival time, dose: 32.0 mg/kg/injection, schedule: Q01DX005 (iv), vehicle: clinical formulation) was 180 % of control, the T/C (endpoint: median survival time, dose: 32.0 mg/kg/injection, schedule: Q01DX005 (iv), vehicle: water) was 174 % of control and the T/C (endpoint: median survival time, dose: 32.0 mg/kg/injection, schedule: Q01DX005 (oral), vehicle: Klucel (hydroxypropylcellulose) (HPC)) was 104 % of control. For the same compound, the T/C (endpoint: median survival time, dose: 32.0 mg/kg/injection, schedule: Q01DX009 (ip), vehicle: Klucel (hydroxypropylcellulose) (HPC)) was 197 % of control and 365 % of control, the T/C (endpoint: median survival time, dose: 32.0 mg/kg/injection, schedule: Q01DX009 (ip), vehicle: clinical formulation) was 115 % of control and the T/C (endpoint: median survival time, dose: 32.0 mg/kg/injection, schedule: Q01DX009 (ip), vehicle: water) was 101 % of control. The T/C (endpoint: median survival time, dose: 32.0 mg/kg/injection, schedule: Q01DX009 (sc), vehicle: water) was 172 % of control, the T/C (endpoint: median survival time, dose: 64.0 mg/kg/injection, schedule: Q01DX009 (sc), vehicle: Klucel (hydroxypropylcellulose) (HPC)) was 96 % of control and the T/C (endpoint: median survival time, dose: 64.0 mg/kg/injection, schedule: Q01DX009 (sc), vehicle: water) was 101 % of control. The T/C (endpoint: median survival time, dose: 1024.0 mg/kg/injection, schedule: Q01DX005 (oral), vehicle: Klucel (hydroxypropylcellulose) (HPC)) was 91 % of control.
